Marks after values point to notes of the source that are not given here.
How the values were obtained:
[1] = tested on: adjuvant-induced arthritis in female Lewis rats; settings: for Change in Secondary Foot Volume Day 14-0 / Secondary Foot Volume % Inhibition Compared to Vehicle Day 21-0 / Change in Secondary Foot Volume Day 21-0 / Secondary Foot Volume % Inhibition Compared to Vehicle Day 14-0: contralateral paw; for Change in Secondary Foot Volume Day 14-0 / Change in Primary Foot Volume Day 4-0 / change in body weight Day 14-0 / change in body weight Day 21-0: p.o. q.d.; for Change in Secondary Foot Volume Day 14-0 / Change in Primary Foot Volume Day 4-0 / change in body weight Day 14-0: Compounds 1, 2, 4, 6 30 mg/kg/day; for Change in Secondary Foot Volume Day 14-0 / Change in Primary Foot Volume Day 4-0: Compound 3 50, Compound 5 100, indomethacin 2; for Change in Secondary Foot Volume Day 14-0 / Change in Primary Foot Volume Day 4-0 / Change in Primary Foot Volume Day 14-0 / change in body weight Day 14-0 / Spleen / Thymus / Change in Primary Foot Volume Day 21-0 / radiographic total scores on day 21, Primary (injected) paw / radiographic total scores on day 21, Secondary (contralateral) Paw / change in body weight Day 21-0 / Thymus (mg): mean ± SD; for Change in Primary Foot Volume Day 14-0 / Secondary Foot Volume % Inhibition Compared to Vehicle Day 14-0 / Primary Foot Volume % Inhibition Compared to Vehicle Day 4-0 / Primary Foot Volume % Inhibition Compared to Vehicle Day 14-0: same doses p.o. q.d.; for change in body weight Day 14-0: Compound 3 50, Compound 5 100, indomethacin 2 mg/kg/day; for prevention of swelling of primary or secondary paws: up to day 14, rats then euthanized; for Spleen / Thymus / Thymus (mg): weight at necropsy, day of euthanasia 21 (Compound 1, indomethacin) or 15 (Compounds 2-6); for Change in Secondary Foot Volume Day 21-0: mean, SD wrapped to next line; for radiographic total scores on day 21, Primary (injected) paw / radiographic total scores on day 21, Secondary (contralateral) Paw: maximum score per foot 26; for change in body weight Day 21-0: indomethacin 2 mg/kg/day; for body weight gain compared with vehicle-treated animals: prophylactic, Compound 1 30 mg/kg q.d.
Protocol: Nine groups of 10 rats each were injected with an emulsion containing 0.5 mg of Mycobacterium butyricum in 0.1 ml of light mineral oil, and a negative control group of 10 rats was not injected with adjuvant. Body weights, primary (injected) and contralateral (non-injected) paw volumes (determined by mercury displacement plethysmography) and lateral radiographs (obtained under Ketamine and Xylazine anesthesia) were determined before (day-1) and at various time points including 21 days following adjuvant injection. The rats were anesthetized with an intramuscular injection of 0.03-0.1 ml of a combination of Ketamine (87 mg/kg) and Xylazine (13 mg/kg) for radiographs and injection of adjuvant. Lateral to medial radiographs were made of both hind paws on days 0 and 21 for using the Faxitron (45 kVp, 30 seconds or 45 kVp, 1 second) and Kodak X-OMAT TL film, and were developed in an automatic processor. […] Specific criteria were used to establish the numerical grade of severity for each radiographic change. The maximum possible score per foot was 26. Compounds or vehicle were administered prophylactically beginning post injection of adjuvant and continuing for 21 days. The Compounds were prepared weekly, refrigerated in the dark until used, and vortex mixed immediately prior to administration. […] The liver, thymus and spleens of all rats were removed and weighed and both hind paws were removed and radiographed.
Two-factor (‘treatment’ and ‘time’) analysis of variance with repeated measures on ‘time’ were applied to the percent changes for body weight and foot volumes and to the rank-transformed radiographic total scores. A post hoc Dunnett's test was conducted to compare the effect of treatments to vehicle. A one-way analysis of variance was applied to the thymic and spleen weights followed by the Dunnett's test to compare the effect of treatments to vehicle.
Compounds or vehicle (0.5% Methocel in sterile water) were administered by oral gavage once daily for 21 days following induction of arthritis in female Lewis rats via the sub plantar injection of 0.1 ml of light mineral oil containing 0.5 mg of Mycobacterium butyricum. Control animals were not injected with adjuvant. Body weights were measured 1 day prior to (i.e. day 0) and at 14 and 21 days post induction of arthritis. The data in Table 1 represent the mean increase or decrease in body weight ±1 standard deviation for groups of 9 to 10 animals.
Compounds or vehicle (0.5% Methocel in sterile water) were administered by oral gavage once daily for 21 days following induction of arthritis in female Lewis rats via the sub plantar injection of 0.1 ml of light mineral oil containing 0.5 mg of Mycobacterium butyricum. Control animals were not injected with adjuvant.
(§1) Injected foot volumes were measured by mercury displacement plethysmography prior to induction of arthritis, and on days 4, 14 and 21 post induction of arthritis. The data represent the mean increase in foot volume ±1 standard deviation for groups of 9 to 10 animals. The extent of paw swelling in compound-treated animals was compared to the mean of that in the vehicle-treated group, and percentage inhibition was calculated for each dose level of compound.
as §1, with “Contralateral foot” for “Injected foot”, “prior to,” for “prior to induction of arthritis,”, “and at” for “and on”, “days” for “days 4,”
[…] Data represent the mean weights of organs in mg ±1 standard deviation for groups of 9 to 10 animals.
Total radiographic scores were derived from examination of lateral radiographs obtained prior to, and on day 21 post induction of arthritis.

[2] = tested on: PPAR-α, PPAR-γ and PPAR-δ; assay: Classification of ligands according to their PPAR activity (Table A); parameters: species or system human; settings: classification based on IC50 and EC50 data of Table B
[3] = biological target: T1, recombinant human PPARδ (GST-PPARδ) (Homo sapiens, UniProt Q03181); assay: Scintillation Proximity Assay, displacement of [3H2]Compound B from PPARδ; type: binding; settings: SPA, radioligand
T1 construct: The full length human cDNAs for PPARδ and PPARα were subcloned into the pGEX-KT expression vector; made in house; host or cells: E. coli
T1 sequence (Q03181 1-441): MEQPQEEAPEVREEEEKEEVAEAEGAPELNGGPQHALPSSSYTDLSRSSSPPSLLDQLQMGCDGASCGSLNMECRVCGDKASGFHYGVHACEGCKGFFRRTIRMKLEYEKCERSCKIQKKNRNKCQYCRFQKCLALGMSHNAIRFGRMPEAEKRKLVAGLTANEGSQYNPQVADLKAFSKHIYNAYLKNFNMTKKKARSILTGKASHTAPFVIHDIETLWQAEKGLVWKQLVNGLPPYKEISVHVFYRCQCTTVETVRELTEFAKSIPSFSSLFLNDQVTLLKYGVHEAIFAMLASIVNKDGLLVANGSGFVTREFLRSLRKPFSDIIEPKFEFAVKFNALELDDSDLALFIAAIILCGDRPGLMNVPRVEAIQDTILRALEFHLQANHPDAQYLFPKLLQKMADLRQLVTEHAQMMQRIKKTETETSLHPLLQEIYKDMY
Description: As an approach to identifying human PPAR agonists, a Scintillation Proximity Assay was used to characterize PPAR-γ, PPAR-δ, and PPAR-α ligands.
Human PPARγ2, human PPARδ and human PPARα were expressed as GST-fusion proteins in E. coli. The full length human cDNA for PPARγ 2 was subcloned into the pGEX-2 T expression vector (Amersham Pharmacia Biotech, Inc.). The full length human cDNAs for PPARδ and PPARα were subcloned into the pGEX-KT expression vector (Amersham Pharmacia Biotech, Inc.). E. coli containing the respective plasmids were propagated, induced, and harvested by centrifugation. The resuspended pellet was broken in a French press and debris removed by centrifugation. Recombinant human PPAR receptors were purified by affinity chromatography on glutathione sepharose. After application to the column, and one wash, receptor was eluted with glutathione. Glycerol (10%) was added to stabilize the receptor and aliquots were stored at −80° C.
After incubation for ˜16 h at 15° C. with shaking, the assay plates were counted in a Packard Topcount with quench correction.

[4] = Compound 1 30 mg/kg/day, indomethacin 2 mg/kg/day p.o. q.d.
[5] = injected paw, Compound 1 30 mg/kg/day, indomethacin 2 mg/kg/day p.o. q.d.
[6] = day 21, 30 mg/kg q.d. prophylactic

## CC(C)OC(=O)C(C)(C)Oc1ccc(C(=O)c2ccc(Cl)cc2)cc1 [Compound 5, Fenofibrate, reference compound]
[1]
  Change in Secondary Foot Volume Day 14-0: 824 ± 186 µL
  change in body weight Day 14-0: −7.6 ± 5.3 grams
  prevention of swelling of primary or secondary paws: failed to prevent swelling of either the primary or secondary paws
  Spleen: 644.4 ± 159.2 mg
  Thymus: 155.3 ± 27.8 mg
[1]; injected paw
  Change in Primary Foot Volume Day 4-0: 1421 ± 212^+ μL
  Change in Primary Foot Volume Day 14-0: 1945 ± 415 µL

## COc1ccc2c(c1)c(CC(=O)O)c(C)n2C(=O)c1ccc(Cl)cc1 [Indomethacin, indomethacin, reference compound]
[1]; [4]
  Secondary Foot Volume % Inhibition Compared to Vehicle Day 21-0: 79.2%
  Change in Secondary Foot Volume Day 21-0: 201.0 µL
  radiographic total scores on day 21, Primary (injected) paw: 4.3 ± 1.3^++
  radiographic total scores on day 21, Secondary (contralateral) Paw: 3.3 ± 1.3**^++
[1]
  Change in Secondary Foot Volume Day 14-0: 275 ± 138^++ μL
  Secondary Foot Volume % Inhibition Compared to Vehicle Day 14-0: 62.0%
  change in body weight Day 14-0: 8.6 ± 7.7**^++ grams
  body weight gain compared with vehicle-treated animals: gained more weight than did vehicle-treated animals
  Spleen: 738.0 ± 124.0 mg
  Thymus (mg): 426.0 ± 69.0^++ mg
[1]; day 21
  radiographic total scores of contralateral paws compared with vehicle: significantly less
  radiographic total scores of primary paws compared with vehicle: significantly less
[1]; [5]
  Primary Foot Volume % Inhibition Compared to Vehicle Day 21-0: 79.2%
  Change in Primary Foot Volume Day 21-0: 499 ± 135^++ μL
[1]; injected paw
  Change in Primary Foot Volume Day 4-0: 798 ± 164^++ μL
  Primary Foot Volume % Inhibition Compared to Vehicle Day 4-0: 59.2%
  Primary Foot Volume % Inhibition Compared to Vehicle Day 14-0: 65.7%
  Change in Primary Foot Volume Day 14-0: 799 ± 159*^++ μL
[1]; Compound 1 30 mg/kg/day
  change in body weight Day 21-0: 11.6 ± 8.0**^++ grams
[1]; rat, in vivo
  Liver: 866.0 ± 86.0 mg
  degree of thymic involution compared with vehicle: less severe

## Cc1cccc(Nc2cc(Cl)nc(SCC(=O)O)n2)c1C [Compound 4, WY-14643, reference compound]
[1]
  Change in Secondary Foot Volume Day 14-0: 704 ± 421 µL
  Secondary Foot Volume % Inhibition Compared to Vehicle Day 14-0: 22.1%
  change in body weight Day 14-0: −15.2 ± 6.8 grams
  prevention of swelling of primary or secondary paws: failed to prevent swelling of either the primary or secondary paws
  Spleen: 665.1 ± 69.8 mg
  Thymus: 146.8 ± 33.4 mg
[1]; injected paw
  Change in Primary Foot Volume Day 4-0: 2133 ± 266 µL
  Primary Foot Volume % Inhibition Compared to Vehicle Day 4-0: 0%
  Change in Primary Foot Volume Day 14-0: 2585 ± 733 µL
[2]
  PPAR Activity: Alpha Agonist

## CN(CCOc1ccc(CC2SC(=O)NC2=O)cc1)c1ccccn1 (stereo not drawn) [Compound 6, Rosiglitazone, reference compound]
[1]
  change in body weight Day 14-0: 0.4 ± 6.4**^++ grams
  prevention of swelling of primary or secondary paws: failed to prevent swelling of either the primary or secondary paws
  Spleen: 634.5 ± 91.4 mg
  Thymus: 187.8 ± 50.4 mg
[2]
  PPAR Activity: Gamma Agonist

## CCCc1c(OCCCSc2ccc(CC(=O)O)cc2Cl)ccc2c(C(F)(F)F)noc12 [Compound B, 3-chloro-4-(3-(7-propyl-3-trifluoromethyl-6-benz-[4,5]-isoxazoloxy)propylthio)phenylacetic acid, reference compound]
[3]
  Kd: ~1 nM

## Cc1cc(SCc2sc(-c3ccc(C(F)(F)F)cc3)nc2C)ccc1OCC(=O)O.[Na+] [Compound 1]
[1]; [4]
  Secondary Foot Volume % Inhibition Compared to Vehicle Day 21-0: 77.8%
  Change in Secondary Foot Volume Day 21-0: 246.0 µL
  radiographic total scores on day 21, Primary (injected) paw: 13.0 ± 7.2
  radiographic total scores on day 21, Secondary (contralateral) Paw: 1.8 ± 3.3^++
[1]
  Change in Secondary Foot Volume Day 14-0: 38 ± 161^++ μL
  Secondary Foot Volume % Inhibition Compared to Vehicle Day 14-0: 92.4%
  change in body weight Day 14-0: 1.9 ± 6.6**^++ grams
  body weight gain compared with vehicle-treated animals: gained more weight than did vehicle-treated animals
  Spleen: 601.0 ± 52.8 mg
  Thymus (mg): 275.0 ± 50.4**^++ mg
[1]; day 21
  radiographic total scores of contralateral paws compared with vehicle: significantly less
[1]; [6]
  swelling of the contralateral (secondary) paw: inhibited the day 21 swelling of the contralateral (secondary) paw
  swelling of the primary (injected) paw: did not affect the swelling of the primary (injected) paw
[1]; [5]
  Change in Primary Foot Volume Day 21-0: 2612 ± 909 µL
[1]; injected paw
  Change in Primary Foot Volume Day 4-0: 1510 ± 523^+ μL
  Primary Foot Volume % Inhibition Compared to Vehicle Day 4-0: 23.1%
  Primary Foot Volume % Inhibition Compared to Vehicle Day 14-0: 30.0%
  Change in Primary Foot Volume Day 14-0: 1530 ± 659**^++ μL
[1]; Compound 1 30 mg/kg/day
  change in body weight Day 21-0: 2.9 ± 7.4**^++ grams
[1]; rat, in vivo
  Liver (mg): 1209.0 ± 129.0**^++ mg
  degree of thymic involution compared with vehicle: less severe
  liver weight compared with vehicle: significantly heavier

Reference: patent US20040242459A1 (priority 2001, published 2004)
